Experimental data published in ChEMBL document CHEMBL1201862, “PubChem BioAssay data set” (2004).
Each block holds one molecule with its values, some of them ahead of it. Active and inactive are the calls of the source.

Key:
Aminopeptidase N = molecular target: T1, Aminopeptidase N (Plasmodium falciparum FcB1/Columbia, UniProt O96935); experiment: malaria alanyl aminopeptidase activity blockers – biochemical, fluorogenic H-Leu-NHMec substrate, 1536-well (AID 1445); design: species or system Plasmodium falciparum 3D7, 3D7
T1 sequence (O96935 whole entry): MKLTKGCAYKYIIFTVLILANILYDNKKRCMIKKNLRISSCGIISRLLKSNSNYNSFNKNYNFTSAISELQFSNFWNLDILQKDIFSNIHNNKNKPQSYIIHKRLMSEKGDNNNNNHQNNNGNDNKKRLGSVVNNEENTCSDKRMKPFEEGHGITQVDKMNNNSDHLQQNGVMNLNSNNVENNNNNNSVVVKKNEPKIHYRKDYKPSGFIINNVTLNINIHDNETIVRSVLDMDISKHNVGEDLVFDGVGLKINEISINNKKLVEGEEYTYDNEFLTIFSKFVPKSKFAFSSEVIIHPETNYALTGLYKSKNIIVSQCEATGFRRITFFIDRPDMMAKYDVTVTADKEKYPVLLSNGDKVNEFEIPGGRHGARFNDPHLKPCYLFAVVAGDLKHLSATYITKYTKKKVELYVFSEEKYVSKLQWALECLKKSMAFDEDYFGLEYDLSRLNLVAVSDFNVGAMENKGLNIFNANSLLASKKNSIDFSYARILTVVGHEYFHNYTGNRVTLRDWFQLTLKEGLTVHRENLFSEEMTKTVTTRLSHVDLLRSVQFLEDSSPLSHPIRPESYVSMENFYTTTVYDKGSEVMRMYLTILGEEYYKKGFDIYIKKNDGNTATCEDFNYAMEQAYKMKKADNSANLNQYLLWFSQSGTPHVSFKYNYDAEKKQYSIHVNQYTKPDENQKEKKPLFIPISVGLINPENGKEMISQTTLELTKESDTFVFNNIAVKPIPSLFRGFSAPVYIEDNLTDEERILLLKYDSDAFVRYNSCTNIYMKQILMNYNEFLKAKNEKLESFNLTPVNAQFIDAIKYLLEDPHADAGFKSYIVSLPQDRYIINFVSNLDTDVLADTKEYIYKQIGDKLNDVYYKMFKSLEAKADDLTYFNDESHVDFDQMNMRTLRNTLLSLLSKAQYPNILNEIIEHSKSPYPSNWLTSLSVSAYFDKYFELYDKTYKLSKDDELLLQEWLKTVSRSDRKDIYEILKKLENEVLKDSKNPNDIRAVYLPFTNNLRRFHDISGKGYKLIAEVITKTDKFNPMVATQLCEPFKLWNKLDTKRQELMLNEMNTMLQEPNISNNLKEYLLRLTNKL

[1] = molecular target: T2, Short transient receptor potential channel 4 (Mus musculus, UniProt Q9QUQ5); experiment: block of DAMGO-driven TRPC4 calcium entry – cell-based, HEK293 TRPC4/mu-opioid, Fluo-4 calcium, dose response (AID 434942); assay type: functional;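 note: potency of inhibitors blocking the TRPC4 calcium response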
T2 sequence (Q9QUQ5 whole entry): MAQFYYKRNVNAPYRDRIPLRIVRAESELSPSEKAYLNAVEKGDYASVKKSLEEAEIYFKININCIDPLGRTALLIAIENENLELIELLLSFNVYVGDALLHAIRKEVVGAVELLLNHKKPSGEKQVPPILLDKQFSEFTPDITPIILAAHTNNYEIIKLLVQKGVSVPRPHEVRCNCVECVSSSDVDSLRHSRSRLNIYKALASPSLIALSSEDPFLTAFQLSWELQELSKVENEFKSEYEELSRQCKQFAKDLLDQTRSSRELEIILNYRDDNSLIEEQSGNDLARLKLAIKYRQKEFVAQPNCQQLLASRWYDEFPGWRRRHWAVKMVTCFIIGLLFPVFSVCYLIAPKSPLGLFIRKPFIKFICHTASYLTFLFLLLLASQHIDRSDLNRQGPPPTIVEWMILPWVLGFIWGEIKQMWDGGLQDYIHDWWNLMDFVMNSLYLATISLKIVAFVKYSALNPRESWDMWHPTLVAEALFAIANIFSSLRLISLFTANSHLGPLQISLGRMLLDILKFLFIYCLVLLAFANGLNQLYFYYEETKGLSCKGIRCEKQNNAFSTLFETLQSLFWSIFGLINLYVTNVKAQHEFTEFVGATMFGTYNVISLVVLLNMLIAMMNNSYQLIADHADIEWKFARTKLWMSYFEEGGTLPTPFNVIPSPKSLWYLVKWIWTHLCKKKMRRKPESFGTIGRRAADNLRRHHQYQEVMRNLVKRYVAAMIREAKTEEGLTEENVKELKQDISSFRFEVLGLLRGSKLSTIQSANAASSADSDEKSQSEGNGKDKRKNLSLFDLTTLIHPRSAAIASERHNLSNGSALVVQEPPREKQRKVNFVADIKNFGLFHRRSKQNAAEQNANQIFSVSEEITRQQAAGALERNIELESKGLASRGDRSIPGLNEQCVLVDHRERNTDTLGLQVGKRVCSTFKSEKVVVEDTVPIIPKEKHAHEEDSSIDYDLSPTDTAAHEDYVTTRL

[2] = molecular target: T2, Short transient receptor potential channel 4; experiment: calcium entry via TRPC4 opening agents – cell-based, HEK293 TRPC4/mu-opioid, Fluo-4 calcium, dose response (AID 434937); assay type: functional
HEK293 [3] = experiment: EBV LMP1 TES2 canonical NF-kB signalling blockers – cell-based, HEK293, luciferase, cherry-pick, dose response (AID 588343); assay type: functional; details: Homo sapiens
[4] = molecular target: DNA dC->dU-editing enzyme APOBEC-3A (Homo sapiens, UniProt P31941); experiment: Dose Response confirmation of small molecule APOBEC3A DNA Deaminase Inhibitors via a fluorescence-based single-stranded DNA deaminase assay. [Related pubchem assays (depositor defined):AID493011, AID493024]; assay type: functional
Chain of DNA dC->dU-editing enzyme APOBEC-3A (P31941 whole entry): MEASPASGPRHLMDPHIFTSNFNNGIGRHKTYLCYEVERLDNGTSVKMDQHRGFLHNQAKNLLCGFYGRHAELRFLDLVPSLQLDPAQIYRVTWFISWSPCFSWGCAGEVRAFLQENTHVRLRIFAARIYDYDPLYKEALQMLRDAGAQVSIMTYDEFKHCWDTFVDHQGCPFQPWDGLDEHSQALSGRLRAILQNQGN

[5] = molecular target: DNA dC->dU-editing enzyme APOBEC-3G (Homo sapiens, UniProt Q9HC16); assay type: functional;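 note: Dose-response counterscreen measuring inhibition of APOBEC3G DNA deaminase activity, run while confirming APOBEC3A inhibitors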
Chain of DNA dC->dU-editing enzyme APOBEC-3G (Q9HC16 whole entry, the tested form may be a part): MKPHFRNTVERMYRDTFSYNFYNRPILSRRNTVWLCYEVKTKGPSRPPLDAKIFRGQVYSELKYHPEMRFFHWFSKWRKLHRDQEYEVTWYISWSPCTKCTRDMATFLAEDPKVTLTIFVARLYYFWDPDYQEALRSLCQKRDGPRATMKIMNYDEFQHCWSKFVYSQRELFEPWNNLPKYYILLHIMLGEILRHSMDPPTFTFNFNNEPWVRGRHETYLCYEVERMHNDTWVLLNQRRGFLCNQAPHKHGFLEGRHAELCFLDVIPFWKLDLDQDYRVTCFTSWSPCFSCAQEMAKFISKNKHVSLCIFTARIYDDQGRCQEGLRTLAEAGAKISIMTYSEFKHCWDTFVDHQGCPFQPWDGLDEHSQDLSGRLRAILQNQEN

[6] = molecular target: Nucleotide-binding oligomerization domain-containing protein 2 (Homo sapiens, UniProt Q9HC29); experiment: inhibition of NOD2-driven NF-kB reporter – cell-based, luminescence, uHTS, HEK293 (AID 1566); assay type: functional
Chain of Nucleotide-binding oligomerization domain-containing protein 2 (Q9HC29 whole entry, the tested form may be a part): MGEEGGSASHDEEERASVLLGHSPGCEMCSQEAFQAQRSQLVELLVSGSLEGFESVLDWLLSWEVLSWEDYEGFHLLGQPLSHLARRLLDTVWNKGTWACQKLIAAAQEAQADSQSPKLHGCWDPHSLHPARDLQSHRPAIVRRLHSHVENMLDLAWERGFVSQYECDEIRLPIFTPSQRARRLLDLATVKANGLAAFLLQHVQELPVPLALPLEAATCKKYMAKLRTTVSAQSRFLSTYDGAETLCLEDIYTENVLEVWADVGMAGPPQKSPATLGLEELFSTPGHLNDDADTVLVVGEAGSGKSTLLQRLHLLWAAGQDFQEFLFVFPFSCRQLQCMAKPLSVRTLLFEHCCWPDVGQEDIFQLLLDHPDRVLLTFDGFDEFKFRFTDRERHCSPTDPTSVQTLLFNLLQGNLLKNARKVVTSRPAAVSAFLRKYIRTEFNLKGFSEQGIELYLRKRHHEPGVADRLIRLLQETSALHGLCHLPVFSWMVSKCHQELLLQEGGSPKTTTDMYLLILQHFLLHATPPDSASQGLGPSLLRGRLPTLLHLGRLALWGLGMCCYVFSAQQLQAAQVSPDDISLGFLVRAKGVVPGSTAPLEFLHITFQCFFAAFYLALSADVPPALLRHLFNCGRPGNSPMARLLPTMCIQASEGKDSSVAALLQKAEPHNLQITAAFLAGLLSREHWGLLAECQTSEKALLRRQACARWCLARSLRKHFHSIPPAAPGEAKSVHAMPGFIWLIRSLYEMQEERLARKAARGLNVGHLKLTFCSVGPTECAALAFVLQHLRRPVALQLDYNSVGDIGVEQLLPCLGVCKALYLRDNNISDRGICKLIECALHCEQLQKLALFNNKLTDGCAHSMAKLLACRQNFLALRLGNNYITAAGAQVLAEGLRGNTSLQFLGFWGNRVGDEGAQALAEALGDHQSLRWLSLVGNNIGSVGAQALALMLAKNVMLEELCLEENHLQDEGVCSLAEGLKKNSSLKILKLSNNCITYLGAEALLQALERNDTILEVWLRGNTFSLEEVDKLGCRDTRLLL

HEK293 [7] = experiment: cells; assay type: functional, cell-based; details: Homo sapiens
HEK293 [8] = experiment: NOD2 signaling inhibitors in MDP-stimulated cells, cell-based, uHTS, luminescence (AID 2001); assay type: functional; details: Homo sapiens
HEK293 [9] = experiment: inhibition of NOD1-driven NF-kB reporter – cell-based, luminescence, uHTS, primary screen (AID 1578); assay type: functional; details: Homo sapiens
HEK293 [10] = experiment: cells; assay type: functional, cell-based; details: Homo sapiens; remark: listed apart in the source
HEK293 [11] = experiment: cells; assay type: functional, cell-based; details: Homo sapiens; remark: listed apart in the source

IC50 (Aminopeptidase N): 30.4 µM (active)
Structure (SMILES): Cc1ccc(-c2n[nH]c3c2C(c2ccccc2)N(c2ccc(C(=O)O)cc2)C3=O)cc1 (stereo not given)

EC50 [1]: 1.68 µM (active)
Structure (SMILES): Cc1ncsc1CCOC(=O)c1cccc([N+](=O)[O-])c1

IC50 (Aminopeptidase N): 89.5 µM (active)
Structure (SMILES): COc1ccc(OC)c(NC(=O)C2C3C=CC(C3)C2C(=O)NCc2ccccn2)c1 (stereo not given)

EC50 [2]: 2.11 µM (active) | EC50 [1]: 1.68 µM (active)
Structure (SMILES): Cc1c(C(=O)N(Cc2cccs2)C2CCS(=O)(=O)C2)oc2ccccc12 (stereo not given)

Structure (SMILES): Cc1cc(C)n(C2CCCCC2OC(=O)c2ccccc2F)n1 (stereo not given)
AC50 (HEK293 [3]): > 350 µM (inactive)

Structure (SMILES): COC(=O)C1=C(C)N(Cc2ccccc2)C(NCCCCO)=N[C@H]1c1ccccc1
IC50 [4]: 2.27 µM (active) | IC50 [5]: 5.13 µM (active)

Structure (SMILES): Cc1cc(/C=C2\SC(=O)N(C)C2=O)c(C)n1-c1ccc(S(N)(=O)=O)cc1
IC50 [4]: 3.12 µM (active) | IC50 [5]: 4.58 µM (active)

Structure (SMILES): CCOC(=O)C1CCN(S(=O)(=O)c2ccc3c(c2)N(C(C)=O)CC(C)S3)CC1 (stereo not given)
EC50 [6]: > 20 µM (inactive) | IC50 (HEK293 [7]): > 20 µM (inactive) | IC50 (HEK293 [8]): > 20 µM (inactive) | EC50 (HEK293 [9]): 7.03 µM (active) | IC50 (HEK293 [10]): 19.7 µM (active) | IC50 (HEK293 [11]): > 20 µM (inactive)

Structure (SMILES): Cc1ccc(Nc2c([N+](=O)[O-])nn(-c3ccc4c(c3)OCCO4)[n+]2[O-])cc1F
EC50 [6]: > 20 µM (inactive) | AC50 (HEK293 [3]): 0.538 µM (active) | IC50 (HEK293 [7]): > 20 µM (inactive) | IC50 (HEK293 [8]): > 20 µM (inactive) | EC50 (HEK293 [9]): > 20 µM (inactive) | IC50 (HEK293 [10]): 0.842 µM (active) | IC50 (HEK293 [11]): > 20 µM (inactive)

Structure (SMILES): CC1(C)CC(N2CCOCC2)=CC(=[N+]2CCOCC2)C1
IC50 [4]: 2.59 µM (active) | IC50 [5]: 2.26 µM (active)
